The test system of data set [1] is sebum secretion. Kind of data set: Inhibition of testosterone propionate-stimulated sebum secretion in castrated male rats (Table I). Type of data set: in vivo. As to conditions: for Mean ± S.E. "Sebum" / % Inhibition of testosterone-stimulated increase in "sebum": 14 days. On the procedure: The effect of the (E) form of the compound of formula I on sebum secretion in mammals, such as rats, was determined according to the following procedure. Male rats weighing about 50-60 g. were castrated at the age of 21-22 days. One week after surgery, the rats were washed in a detergent solution to remove "sebum" which was secreted prior to the test period. One group of rats were treated only with the carrier vehicles employed. Another group of rats received only testosterone propionate in sesame oil, 100 ug/0.2 ml/rat/day […]. Other groups of rats were given testosterone propionate in sesame oil (100 ug/0.2 ml/rat/day subcutaneously) and 1,2,3,4-tetrahydro-1,1,4,4-tetramethyl-6-[(E)-α-methylstyryl]naphthalene, with different amounts of 1,2,3,4-tetrahydro-1,1,4,4-tetramethyl-6[(E)-α-methylstyryl]naphthalene being administered to each of the other groups orally in 0.2 ml/rat/day propylene glycol. The rats were treated with the compounds for 14 days. On the 15th day total body immersion in a fixed volume of acetone with mixing for two minutes removed surface "sebum" from skin and fur. An aliquot of the solvent bath was dried and the solid residue was measured gravimetrically. Inhibition of the testosterone-stimulated increase in "sebum" over solely testosterone propionate stimulated rats was used as the parameter of response.

In data set [2] the test system is sebaceous glands (flank organs). Kind of data set: Inhibition of testosterone propionate-stimulated flank organ weight increase in castrated male hamsters (Table II). The data set is classed as in vivo. On the procedure: The effect of the (E) form of the compound of formula I on sebaceous glands in mammals was further determined using hamsters, according to the following procedure. […] Animals were treated for 14 days and the response was measured by weight changes in flank organs removed at autopsy. Separate groups of hamsters served as vehicle controls and testosterone alone groups. Activity was measured by inhibition of the increase in weight which occurs in response to stimulation with testosterone propionate.

For data set [3], the system named is abdominal sebaceous gland pad organs. Kind of data set: Inhibition of testosterone-stimulated abdominal sebaceous gland pad weight increase in castrated male gerbils (Table III). The data set is classed as in vivo. On the procedure: The effect of the (E) form of the compound of formula I on sebaceous glands in mammals was further determined using gerbils, according to the following procedure. Male gerbils were castrated at 8 weeks of age and one week after surgery were treated with 5 ug free testosterone and 1,2,3,4-tetrahydro-1,1,4,4-tetramethyl-6-[(E)-α-methylstyryl]naphthalene topically in acetone on the abdominal sebaceous gland pad organs. Animals were treated for 14 days and the response was measured by weight changes in these organs removed at autopsy. Separate groups of gerbils served as vehicle controls and testosterone alone groups. Activity was measured by inhibition of the increase in weight which occurs in response to stimulation with testosterone.

A short description of data set [4]: Hypervitaminosis A test. The arrangement: species or system mice. As to conditions: mouse, in vivo. On the procedure:
A hypervitaminosis A test was carried out on mice weighing 25-27 g. which received i.p. injections of 1,2,3,4-tetrahydro-1,1,4,4-tetramethyl-6-[(E)-α-methylstyryl]naphthalene in arachis oil over a 14 day period. Hypervitaminosis A is defined as being that condition of the animals where the symptoms (weight loss, skin desquamtion, loss of hair, bone fractures of extremities) added up to at least 3, c.f. W. Bollag, Cancer, 1974, 10, 731.

Data set [5] in a line: Teratogenicity tests, for fetal abnormalities. Type of data set: in vivo, Charles River CD rats. As to conditions: 10, 50 or 150 mg/kg daily orally, gestation days 8 and 9. On the procedure:
In order to further determine the safety of the (E) form of the compound of formula I teratogenicity tests, for fetal abnormalities, were carried out in rats according to the following procedure. 1,2,3,4-tetrahydro-1,1,4,4-tetramethyl-6-[(E)-α-methylstyryl]naphthalene was provided to Charles River CD rats on gestation days 8 and 9 using a daily dose of 10 , 50 or 150 mg/kg of this substance dissolved or suspended in a polyethelene glycol formulation containing traces of antioxidants (ascorbyl palmitate and butylated hydroxyanisole). The compound was administered orally at a constant volume of 5 ml/kg. The rats were then sacrificed on gestation day 20 and examined.

A short description of data set [6]: Skin irritation, topical application to the ears. The data set is classed as in vivo, Charles River CD-1 mice. As to conditions: topically in 25 μl/day acetone, doses up to 100 μg/day, 7 consecutive days. On the procedure: 1,2,3,4-tetrahydro-1,1,4,4-tetramethyl-6-[(E)-α-methylstyryl]naphthalene was applied topically to the ears of 21-day-old male Charles River CD-1 mice for 7 consecutive days in 25 μl/day acetone. During treatment mice are observed for development of erythema on the ears, and uniform skin punches are taken at autopsy on day 8. Wet and dry weights of the skin samples were determined and compared to weights from vehicle-treated control animals. Increases in fluid content of the skin punches served as a measure of edema when irritation and inflammation had occurred.

Data set [7] in a line: General tolerability statement. Type of data set: in vivo. As to conditions: pharmacologically suitable dosages.
In data set [8] the test system is papilloma. As to conditions: cited from earlier work.

Each structure is given as a SMILES string. Where only a bound is given, the exact number is not on record here.

With `C/C(=C\c1ccccc1)c1ccc2c(c1)C(C)(C)CCC2(C)C` [1,2,3,4-tetrahydro-1,1,4,4-tetramethyl-6-[(E)-α-methylstyryl]naphthalene], the “Mean ± S.E. "Sebum"” value in data set [1] (0.5 ug/rat/day p.o. + T.P. 100 ug/rat/day s.c., 8 rats, NS vs T.P. alone) worked out at 25.1 ± 1.9 ug/100 ul; in data set [1] (1 ug/rat/day p.o. + T.P. 100 ug/rat/day s.c., 8 rats, NS vs T.P. alone), 26.8 ± 1.6 ug/100 ul; in data set [1] (2 ug/rat/day p.o. + T.P. 100 ug/rat/day s.c., 8 rats, NS vs T.P. alone), 22.1 ± 1.2 ug/100 ul; in data set [1] (4 ug/rat/day p.o. + T.P. 100 ug/rat/day s.c., 8 rats, NS vs T.P. alone), 21.6 ± 1.6 ug/100 ul; in data set [1] (10 ug/rat/day p.o. + T.P. 100 ug/rat/day s.c., 9 rats, p<.01 vs T.P. alone) it was 23.4 ± 1.6 ug/100 ul; in data set [1] (20 ug/rat/day p.o. + T.P. 100 ug/rat/day s.c., 9 rats, p<.01 vs T.P. alone), 22.4 ± 1.6 ug/100 ul. Further, the “Mean ± S.E. "Sebum"” value in data set [1] (40 ug/rat/day p.o. + T.P. 100 ug/rat/day s.c., 9 rats, p<.001 vs T.P. alone) worked out at 22.1 ± 0.9 ug/100 ul; in data set [1] (100 ug/rat/day p.o. + T.P. 100 ug/rat/day s.c., 9 rats, p<.001 vs T.P. alone) it was 19.9 ± 1.2 ug/100 ul. Also, the “% Inhibition of testosterone-stimulated increase in "sebum"” value in data set [1] (10 ug/rat/day p.o. + T.P. 100 ug/rat/day s.c.) amounted to 61%; in data set [1] (20 ug/rat/day p.o. + T.P. 100 ug/rat/day s.c.), 70%; in data set [1] (40 ug/rat/day p.o. + T.P. 100 ug/rat/day s.c.), 73%; in data set [1] (100 ug/rat/day p.o. + T.P. 100 ug/rat/day s.c.), 93%. The “sebum secretion (in words)” value in data set [1] (100 ug/rat/day p.o. + T.P. 100 ug/rat/day s.c., compared to T.P. alone) is on record as “decreased to virtually normal level”. In data set [2] (0.5 μg topically + T.P. 5 ug, 14 days, 9 hamsters), the “% Inhibition of testosterone-stimulated increase in flank organ weight” value is on record as 38%. In data set [2] (0.5 μg topically + T.P. 5 ug, 14 days, 9 hamsters, p<.001 vs T.P. alone), the “Mean ± S.E. Flank Organ” value worked out at 26.0 ± 1.6 mg. Besides, in data set [2] (0.5 ug/animal/day topically with 5 μg T.P., vs testosterone alone), the “inhibition of flank organ weight increase” value was approximately 38%. Moreover, in data set [3] (1 ug topically + testosterone 5 ug, 14 days, 10 gerbils), the “% Inhibition of testosterone-stimulated increase in sebaceous gland pad weight” value is listed as 54%. For the same compound, the “Mean ± S.E. Sebaceous Gland Pad” value in data set [3] (1 ug topically + testosterone 5 ug, 14 days, 10 gerbils, p<.01 vs testosterone alone) amounted to 45.6 ± 6.9 mg. Further, the “inhibition of sebaceous gland pad weight” value in data set [3] (1.0 ug/animal/day p.o. (so in the source) with 5 ug testosterone topically, vs testosterone alone) is reported as approximately 54%. Moreover, the “undesired side effects such as hypervitaminosis” value in data set [4] was “no undesired side effects such as hypervitaminosis”. The NOAEL at 336 h in data set [4] (ip, i.p. in arachis oil, 14 day period, hypervitaminosis A = symptoms adding up to at least 3, read-out: dosage not resulting in hypervitaminosis A (tested up to)) was more than 400 mg/kg. Also, in data set [5] (187 fetuses), the external malformations result was “no external malformations were recorded in any of the 187 fetuses”. For the same compound, the absorption rate result in data set [5] (examined day 20) was “no adverse effects”. Further, the fetal weight result in data set [5] (examined day 20) is given as “no adverse effects”. Moreover, the maternal body weights entry in data set [5] (examined day 20) is listed as “no adverse effects”. Further, the “adverse effects (skin irritation: erythema, edema of ear skin punches)” value in data set [6] is “not to have adverse effects”. In addition, the tolerability entry in data set [7] is listed as “well tolerated without toxic symptoms”. The “effect on papilloma growth” value in data set [8] (Loeliger et al., Eur. J. Med. Chem., 15, 9 (1980)) was “no effect on papilloma growth”. The papilloma size entry in data set [8] (after intraperitoneal administration, Loeliger et al. (1980)) is listed as “increase in papilloma size”.
`C[C@]12CC[C@H]3[C@@H](CCC4=CC(=O)CC[C@@]43C)[C@@H]1CC[C@@H]2O` [Testosterone, testosterone, reference compound]: in data set [3] (Testosterone alone, 5 ug, 14 days, 10 gerbils), the “Mean ± S.E. Sebaceous Gland Pad” value worked out at 72.5 ± 5.8 mg.
For the compound `CCC(=O)O[C@H]1CC[C@H]2[C@@H]3CCC4=CC(=O)CC[C@]4(C)[C@H]3CC[C@]12C` [T.P., testosterone propionate, reference compound], the “Mean ± S.E. "Sebum"” value in data set [1] (100 ug/rat/day s.c. T.P. alone (0 ug compound), 8 rats, first experiment) is 25.1 ± 1.4 ug/100 ul; in data set [1] (100 ug/rat/day s.c. T.P. alone (0 ug compound), 9 rats, second experiment), 30.1 ± 1.0 ug/100 ul. In addition, the “Mean ± S.E. Flank Organ” value in data set [2] (T.P. alone, 5 ug, 14 days, 8 hamsters) is 33.8 ± 2.0 mg.
